30 compounds from US3963707A, “Novel N-nitroso compounds, compositions containing such compounds, processes for their preparation and methods of treatment therewith, and novel intermediates” (Aktiebolaget Leo, priority 1973, dated 1976) can be followed below.

The test system of this experiment is Hepatoma AH 130. Kind of experiment: in vivo. The note with it: additional compounds, result in words. More on the design: species or system SPF Wistar rats. The source says:
The high activity against tumours is further illustrated in these experiments by comparisons with known antitumour agents used in the therapy. The therapeutic indexes (T.I.), i.e. the ratios LD50/ED50, are in all comparisons much more favourable with the compounds of the present invention.
LD50 is the dose that caused a 50 percent lethality of the animals, ED50 is the dose that caused a 50 percent reduction of tumour size.
The experimental design and the interpretation of the results have been in accordance with the standards set by the CCNSC (Cancer Chemotherapy Reports, January 1959 and December 1962), and by the DR&D (Cancer Chemotherapy Reports, September 1972, Vol. 3, No. 2).
The way of administration is by the intraperitoneal route (i.p.) in each case.
Experimental animals: SPF Wistar rats.
Tumour implant: 5 × 10^6 tumour cells i.p.
Therapy: One injection i.p. on the day following implantation.
Termination: The animals are killed on the 8th day.
Evaluation: Weights of tumours of test animals compared with those of control animals.

Turning to `CC(=O)O[C@H]1C(=O)C[C@H]2[C@@H]3CCc4cc(OC(=O)N(CCCl)N=O)ccc4[C@H]3CC[C@]12C` [estra-1,3,5(10)-triene-3,17β-diol-16-one,17β-acetate-3-N-(2-chloroethyl)-N-nitroso carbamate], the anti-tumor activity result is “exhibit anti-tumor activity”.
On to `COc1ccc2c(c1)CC[C@@H]1[C@@H]2CC[C@]2(C)[C@@H](OC(=O)N(C)C(=O)N(CCCl)N=O)CC[C@@H]12` [estradiol-3-methylether-17β-/N^2-methyl-N^4-(2-chloroethyl)-N^4-nitroso allophanate], for which the anti-tumor activity result is listed as “exhibit anti-tumor activity”.
In the case of `COc1ccc2c(c1)CC[C@@H]1[C@@H]2CC[C@]2(C)[C@@H](OC(=O)N(C(=O)N(CCCl)N=O)c3ccccc3)CC[C@@H]12` [estradiol-3-methylether-17β-/N^2-phenyl-N^4-(2-chloroethyl)-N^4-nitroso allophanate/], the anti-tumor activity entry is “exhibit anti-tumor activity”.
In the case of `COc1ccc2c(c1)CC[C@@H]1[C@@H]2CC[C@]2(C)[C@@H](OC(=O)NC(=O)N(CCCl)N=O)CC[C@@H]12` [estradiol-3-methylether-17β-/N^4-(2-chloroethyl)-N^4-nitroso allophanate/] it was “exhibit anti-tumor activity”.
In the case of `CC(=O)O[C@H]1CC[C@H]2[C@@H]3CCc4cc(OC(=O)N(C)C(=O)N(CCCl)N=O)ccc4[C@H]3CC[C@]12C` [estradiol-17β-acetate-3-/N^2-methyl-N^ 4-(2-chloroethyl)-N^4-nitroso allophanate/] it was “exhibit anti-tumor activity”.
As to `CC(=O)O[C@H]1CC[C@H]2[C@@H]3CCc4cc(OC(=O)N(CCF)N=O)ccc4[C@H]3CC[C@]12C` [estradiol-17β-acetate-3-N-(2-fluoroethyl)-N-nitroso carbamate], the anti-tumor activity entry is on record as “exhibit anti-tumor activity”.
The entry for `CCOP(=O)(O)O[C@H]1CC[C@H]2[C@@H]3CCc4cc(OC(=O)N(CCCl)N=O)ccc4[C@H]3CC[C@]12C` [estradiol-17β-ethyl hydrogen phosphate-3-N-(2-chloroethyl)-N-nitroso carbamate] is “exhibit anti-tumor activity”; for `C[C@]12CC[C@@H]3c4ccc(OC(=O)N(CCCl)N=O)cc4CC[C@H]3[C@@H]1CC[C@@H]2OP(=O)(O)Oc1ccccc1` [estradiol-17β-phenyl hydrogen phosphate-3-N-(2-chloroethyl)-N-nitroso carbamate] it is “exhibit anti-tumor activity”.
In the case of `CCCCC(=O)O[C@H]1CC[C@H]2[C@@H]3CCc4cc(OC(=O)N(CCCl)N=O)ccc4[C@H]3CC[C@]12C` [estradiol-17β-valerate-3-N-(2-chloroethyl)-N-nitroso carbamate] it was “exhibit anti-tumor activity”; in that of `CC1CCC(N(C(=O)Oc2ccc3c(c2)CC[C@@H]2[C@@H]3CC[C@]3(C)C(=O)CC[C@@H]23)C(=O)N(CCCl)N=O)CC1` (stereo partly drawn) [estrone-3-/N^2-(4-methylcyclohexyl)-N^4-(2-chloroethyl)-N^4-nitroso allophanate/], “exhibit anti-tumor activity”; in that of `Cc1ccc(N(C(=O)Oc2ccc3c(c2)CC[C@@H]2[C@@H]3CC[C@]3(C)C(=O)CC[C@@H]23)C(=O)N(CCCl)N=O)cc1` [estrone-3-/N^2-(4-methylphenyl)-N^4-(2-chloroethyl)-N^4-nitroso allophanate/], “exhibit anti-tumor activity”.
As for `C#C[C@]1(OC(=O)N(CCCl)N=O)CC[C@H]2[C@@H]3CCC4=C[C@@H](OP(=O)(O)O)CC[C@@H]4[C@H]3CC[C@@]21C` [ethynodiol-17β-N-(2-chloroethyl)-N-nitroso carbamate-3β-dihydrogen phosphate], the anti-tumor activity result is listed as “exhibit anti-tumor activity”.
As for `C#C[C@]1(OC(=O)N(CCCl)N=O)CC[C@H]2[C@@H]3CCC4=C[C@@H](OP(=O)(O)OCC)CC[C@@H]4[C@H]3CC[C@@]21C` [ethynodiol-17β-N-(2-chloroethyl)-N-nitroso carbamate-3β-ethyl hydrogen phosphate], the anti-tumor activity entry was “exhibit anti-tumor activity”.
In the case of `C#C[C@]1(OC(=O)N(CCCl)N=O)CC[C@H]2[C@@H]3CCC4=C[C@@H](OC(=O)CCCCCC)CC[C@@H]4[C@H]3CC[C@@]21C` [ethynodiol-17β-N-(2-chloroethyl)-N-nitroso carbamate-3β-oenanthate] it was “exhibit anti-tumor activity”; in that of `C#C[C@]1(OC(=O)N(CCCl)N=O)CC[C@H]2[C@@H]3CCC4=C[C@@H](OP(=O)(O)Oc5ccccc5)CC[C@@H]4[C@H]3CC[C@@]21C` [ethynodiol-17β-N-(2-chloroethyl)-N-nitroso carbamate-3β-phenylhydrogen phosphate], “exhibit anti-tumor activity”.
`C#C[C@]1(OC(=O)N(CCCl)N=O)CC[C@H]2[C@@H]3CCC4=C[C@@H](OS(=O)(=O)O)CC[C@@H]4[C@H]3CC[C@@]21C` [ethynodiol-17β-N-(2-chloroethyl)-N-nitroso carbamate-3β-sodium sulphate]: the anti-tumor activity result is recorded as “exhibit anti-tumor activity”.
`C#C[C@]1(OC(=O)N(CCCl)N=O)CC[C@H]2[C@@H]3CCC4=C[C@@H](O)CC[C@@H]4[C@H]3CC[C@@]21C` [ethynodiol-17β-N-(2-chloroethyl)-N-nitroso carbamate]: the anti-tumor activity result is on record as “exhibit anti-tumor activity”.
For the compound `C#C[C@]1(OC(C)=O)CC[C@H]2[C@@H]3CCC4=C[C@@H](OC(=O)N(C(=O)N(CCCl)N=O)C5CCC(C)CC5)CC[C@@H]4[C@H]3CC[C@@]21C` (stereo partly drawn) [ethynodiol-17β-acetate-3β-/N^2-(4-methylcyclohexyl)-N^4-(2-chloroethyl)-N^4-nitroso allophanate/], the anti-tumor activity entry is given as “exhibit anti-tumor activity”.
Regarding `C#C[C@]1(OC(C)=O)CC[C@H]2[C@@H]3CCC4=C[C@@H](OC(=O)N(C)C(=O)N(CCCl)N=O)CC[C@@H]4[C@H]3CC[C@@]21C` [ethynodiol-17β-acetate-3β-/N^2-methyl-N^4-(2-chloroethyl)-N^4-nitroso allophanate/], the anti-tumor activity entry is “exhibit anti-tumor activity”.
With `C#C[C@]1(OC(C)=O)CC[C@H]2[C@@H]3CCC4=C[C@@H](OC(=O)N(CCCC)C(=O)N(CCCl)N=O)CC[C@@H]4[C@H]3CC[C@@]21C` [ethynodiol-17β-acetate-3β-/N^2-n-butyl-N^4-(2-chloroethyl)-N^4-nitroso allophanate/], the anti-tumor activity entry is listed as “exhibit anti-tumor activity”.
For `C#C[C@]1(OC(C)=O)CC[C@H]2[C@@H]3CCC4=C[C@@H](OC(=O)N(C(=O)N(CCCl)N=O)c5ccccc5)CC[C@@H]4[C@H]3CC[C@@]21C` [ethynodiol-17β-acetate-3β-/N^2-phenyl-N^4-(2-chloroethyl)-N-nitroso allophanate/], the anti-tumor activity result is on record as “exhibit anti-tumor activity”.
In the case of `C#C[C@]1(OC(C)=O)CC[C@H]2[C@@H]3CCC4=C[C@@H](OC(=O)NC(=O)N(CCCl)N=O)CC[C@@H]4[C@H]3CC[C@@]21C` [ethynodiol-17β-acetate-3β-/N^4-(2-chloroethyl)-N^4-nitroso allophanate/], the anti-tumor activity result is recorded as “exhibit anti-tumor activity”.
`C#C[C@]1(OC(C)=O)CC[C@H]2[C@@H]3CCC4=C[C@@H](OC(=O)N(CCF)N=O)CC[C@@H]4[C@H]3CC[C@@]21C` [ethynodiol-17β-acetate-3β-N-(2-fluoroethyl)-N-nitroso carbamate]: the anti-tumor activity result is recorded as “exhibit anti-tumor activity”.
Consider `C[C@]12CC[C@@H](OC(=O)N(CCF)N=O)C[C@H]1CC[C@@H]1[C@@H]2CC[C@]2(C)C(=O)CC[C@@H]12` [etiocholanolone-3α-N-(2-fluoroethyl)-N-nitroso carbamate], for which the anti-tumor activity entry is reported as “exhibit anti-tumor activity”.
With `C[C@]12C=CC(=O)C=C1CC[C@@H]1[C@@H]2[C@@H](OC(=O)N(CCCl)N=O)C[C@@]2(C)[C@H]1CC[C@]2(O)C(=O)COP(=O)(O)O` [prednisolone-11β-/N-(2-chloroethyl)-N-nitroso carbamate/-21-dihydrogenphosphate], the anti-tumor activity result is on record as “exhibit anti-tumor activity”.
`CC(C)(C)C(=O)OCC(=O)[C@@]1(O)CC[C@H]2[C@@H]3CCC4=CC(=O)C=C[C@]4(C)[C@H]3[C@@H](OC(=O)N(CCCl)N=O)C[C@@]21C` [prednisolone-11β-/N-(2-chloroethyl)-N-nitroso carbamate/-21-pivalate]: the anti-tumor activity entry was “exhibit anti-tumor activity”.
For `C[C@]12C=CC(=O)C=C1CC[C@@H]1[C@@H]2[C@@H](OC(=O)N(CCCl)N=O)C[C@@]2(C)[C@H]1CC[C@]2(O)C(=O)CO` [prednisolone-11β-N-(2-chloroethyl)-N-nitroso carbamate], the anti-tumor activity entry was “exhibit anti-tumor activity”.
As to `C[C@]12C=CC(=O)C=C1CC[C@@H]1[C@@H]2[C@@H](O)C[C@@]2(C)[C@H]1CC[C@]2(O)C(=O)COC(=O)N(C(=O)N(CCCl)N=O)C1CCCCC1` [prednisolone-21-/N^2-cyclohexyl-N^4-(2-chloroethyl)-N-nitroso allophanate/], the anti-tumor activity entry is reported as “exhibit anti-tumor activity”.
In the case of `CC(=O)[C@H]1CC[C@H]2[C@@H]3CC=C4C[C@@H](OC(=O)N(CCCl)C(=O)N(CCCl)N=O)CC[C@]4(C)[C@H]3CC[C@]12C` [pregnenolone-3β-/N^2,N^4-bis (2-chloroethyl)-N^4-nitroso allophanate/] it was “exhibit anti-tumor activity”; in that of `CC(=O)[C@H]1CC[C@H]2[C@@H]3CC=C4C[C@@H](OC(=O)N(C(=O)N(CCCl)N=O)C5CCC(C)CC5)CC[C@]4(C)[C@H]3CC[C@]12C` (stereo partly drawn) [pregnenolone-3β-/N^2-(4-methylcyclohexyl)-N^4-(2-chloroethyl)-N^4-nitroso allophanate/], “exhibit anti-tumor activity”.
